Laboratory results published in paper PMC4038399, “Experimental validation of [sequence]^comb virtual ligand screening results for eight proteins yields novel nanomolar and micromolar binders” (Journal of Cheminformatics, 2014).
Values after ≈ are worked out from the molar mass of the structure shown. Read-outs that look alike come from different tables or passages of the source. Values belong to the molecule of their own block, whether it stands above or below them.

Experiments:
[1] = target: T1, pig heart malic dehydrogenase (malate dehydrogenase) (Sus scrofa, UniProt P00346); assay: Thermal melt assay standardization; assay type: binding; conditions: read-out: Tm shift
T1 construct: pig heart malic dehydrogenase were obtained from Sigma-Aldrich; purchased Sigma-Aldrich; host or cells: pig heart
T1 sequence (P00346 25-338): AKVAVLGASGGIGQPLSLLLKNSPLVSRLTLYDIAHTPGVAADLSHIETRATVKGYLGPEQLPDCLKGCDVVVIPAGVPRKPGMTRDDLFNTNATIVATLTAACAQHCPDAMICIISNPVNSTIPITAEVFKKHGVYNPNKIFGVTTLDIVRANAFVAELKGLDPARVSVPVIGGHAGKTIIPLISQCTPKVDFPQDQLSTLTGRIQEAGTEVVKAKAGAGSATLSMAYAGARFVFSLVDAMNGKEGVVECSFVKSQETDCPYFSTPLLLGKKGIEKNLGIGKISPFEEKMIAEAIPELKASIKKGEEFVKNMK
Protocol: High throughput thermal shift assays were carried out following established guidelines (Additional file 1: Table S1). Protein melting curves were obtained from samples aliquoted in 96-well plates using a RealPlex quantitative PCR instrument from Eppendorf (Eppendorf, NY, USA), with Sypro orange dye from Invitrogen as the fluorescent probe. A uniform final concentration of 5 X (supplied as a 5000 X stock solution) was used in all experiments. […] For standardization, different buffers and pH were checked. Thereafter, 100 mM HEPES pH 7.3 and 150 mM NaCl were used in all unfolding experiments. The volume of each reaction was 20 μl, and appropriate dye and protein controls were included. All experiments were done with a minimum of two replicates, with the mean value considered for further analysis. Several drugs/small molecules interact with Sypro orange and lead to aberrant signal enhancements. An additional control to rule out drug-dye interaction was carried out with all the constituents kept constant except for the protein of interest. The protein/protein-drug curves were reported after subtracting the respective dye alone/drug-dye curves.
Thermal melt assays were standardized on several protein/ligand pairs with reported Tm shifts. Thermal melt curves for citrate synthase were generated with both cognate ligand oxaloacetate (cat. no. O4126) and non-cognate (and nonbinding) NADH. The protein concentration was 5 µM. Titration of oxaloacetate (10 µM-200 µM) was carried out to establish the concentration dependence of the melting temperature. Thermal melting of malic dehydrogenase was performed with its cognate ligand NADH (cat no. N8129) and non-cognate ligand oxaloacetate. Studies of the concentration dependence of NADH (1 mM-5 mM) on melting temperature shifts for malic dehydrogenase at 5 µM and 10 µM concentrations, respectively, were also performed.

[2] = target: T2, 1000006: catalytic domain of protein tyrosine phosphatase (2G59) (Homo sapiens, UniProt Q16827); assay: Thermal shift (thermal melt) assay, Sypro orange; assay type: binding, H. sapiens
T2 construct: the catalytic domain of PTP from H. sapiens (PDB ID: 2G59) (1000006); New York structural genomics consortium (gift)
T2 sequence (Q16827 938-1195 limits assumed): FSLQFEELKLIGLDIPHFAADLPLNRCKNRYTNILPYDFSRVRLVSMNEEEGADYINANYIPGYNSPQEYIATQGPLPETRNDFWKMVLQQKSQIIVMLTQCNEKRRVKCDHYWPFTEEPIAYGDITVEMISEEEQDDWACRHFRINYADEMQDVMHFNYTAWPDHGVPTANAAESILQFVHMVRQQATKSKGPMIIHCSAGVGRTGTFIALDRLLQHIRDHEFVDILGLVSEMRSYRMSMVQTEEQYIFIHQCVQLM
Protocol: (§1) High throughput thermal shift assays were carried out following established guidelines (Additional file 1: Table S1). Protein melting curves were obtained from samples aliquoted in 96-well plates using a RealPlex quantitative PCR instrument from Eppendorf (Eppendorf, NY, USA), with Sypro orange dye from Invitrogen as the fluorescent probe. A uniform final concentration of 5 X (supplied as a 5000 X stock solution) was used in all experiments. The dye was excited at 465 nm and emission recorded at 580 nm using the instrument’s filters. A heating ramp of 1°C/min from 25°C to 74°C was used, and one data point acquired for each degree increment. For standardization, different buffers and pH were checked. Thereafter, 100 mM HEPES pH 7.3 and 150 mM NaCl were used in all unfolding experiments. The volume of each reaction was 20 μl, and appropriate dye and protein controls were included. All experiments were done with a minimum of two replicates, with the mean value considered for further analysis. Several drugs/small molecules interact with Sypro orange and lead to aberrant signal enhancements. An additional control to rule out drug-dye interaction was carried out with all the constituents kept constant except for the protein of interest. The protein/protein-drug curves were reported after subtracting the respective dye alone/drug-dye curves.
(§2) Each melting curve was assigned a quality score (Q), the ratio of the melting-associated increase in fluorescence (ΔFmelt) to the total fluorescence range (ΔFtotal). Q = 1 is a high-quality curve, while Q = 0 indicates no thermal transition. Though an arbitrary Q value cutoff was not applied to judge curve quality, the curves were manually curated with Q values reported. […] These were ignored (see Table 1).
(§3) Subsequent to standardization, (see SI Methods), the validity of the top 1% of […]^comb’s predictions on the test set of eight diverse proteins was examined. To be conservative, we focused only on those protein/ligand pairs showing single sigmoidal thermal transition curves. The fit to Boltzmann’s equation (Eq. 1) was employed to estimate the melting temperature from the observed intensity, I.
(§4) (4) I=Imin+Imax-Imin/1+e^Tm-T/a
(§5) Imin and Imax are the minimum and maximum intensities; a denotes the slope of the curve at the transition midpoint temperate, Tm. To estimate thermodynamic parameters, both van’t Hoff and Gibbs-Helmholtz analyses were done. To estimate the approximate ligand-binding affinity at Tm, Eq. (2) from reference was used with slight modifications; ΔCp is ignored.
(§6) (5) KLTm=exp-ΔH/R1/Tm-1/To/L
(§7) KL(Tm) is the ligand association constant and [L] is the free ligand concentration at Tm ([LTm] ~ [L]total, when [L]total > > the total concentration of protein. KD is the inverse of KL(Tm).
(§8) Thermal unfolding of the eight benchmark proteins was carried out in a 20 μl reaction mix with 100 mM HEPES pH 7.3, 150 mM NaCl, 5 X Sypro orange dye, 10 μM protein and 1 mM of all the predicted ligands.

[3] = target: T3, Thioredoxin peroxidase 2 (TP2) (Plasmodium falciparum, UniProt Q8I5Q6); assay: Thermal shift (thermal melt) assay, Sypro orange; assay type: binding; conditions: for Kd: approximate, computed from the thermal shift
T3 construct: Structural Genomics for Pathogenic Protozoa (SGPP) consortium (gift)
T3 sequence (Q8I5Q6 20-216): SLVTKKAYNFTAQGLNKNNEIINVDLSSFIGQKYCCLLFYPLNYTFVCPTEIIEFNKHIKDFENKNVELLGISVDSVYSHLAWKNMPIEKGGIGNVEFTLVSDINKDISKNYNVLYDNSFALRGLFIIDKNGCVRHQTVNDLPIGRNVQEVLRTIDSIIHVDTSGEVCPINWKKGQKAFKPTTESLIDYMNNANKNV
Protocol: as §1, §2, §3, §4, §5, §6, §7, §8

E. coli strain DH5α = assay: Antimicrobial assay (MIC); assay type: cell-based; conditions: Escherichia coli, Minimum inhibitory concentration required for 90% clearance
Protocol: (§9) Antimicrobial and anti-cancer tests were performed as in [80].

[4] = tested on: methicillin-resistant S. aureus (ATCC 33591) (MRSA); assay: Antimicrobial assay (MIC); assay type: cell-based; conditions: Staphylococcus aureus
Protocol: as §9

[5] = tested on: multi-drug resistant E. coli SMS-3-4 (ATCC BAA-1743) (MDREC); assay: Antimicrobial assay (MIC); assay type: cell-based; conditions: Escherichia coli, ATCCBAA1743
Protocol: as §9

[6] = tested on: vancomycin-resistant E. faecium (ATCC700221) (VREF); assay: Antimicrobial assay (MIC); assay type: cell-based; conditions: Enterococcus faecium, ATCC700221
Protocol: as §9

[7] = tested on: HCT-116 colon carcinoma cell line; assay: Cytotoxic assay on cancer cell line; assay type: cell-based; conditions: Homo sapiens, HCT-116, inhibitory concentration for 50% growth inhibition; read-out: HCT-116 (IC-50)
Protocol: as §9

[8] = tested on: several cancer cell lines including melanoma, prostrate, colon, and breast; design: method as in PMID 22140110; conditions: potency not revealed; PubChem CID 24198955; cited from earlier work

ΔTm at 1000 µM ([1]; 1 mM NADH): 11 °C
ΔTm at 10000 µM ([1]; 10 mM NADH): 17 °C
Structure (SMILES): NC(=O)C1=CN([C@@H]2O[C@H](COP(=O)(O)OP(=O)(O)OC[C@H]3O[C@@H](n4cnc5c(N)ncnc54)[C@H](O)[C@@H]3O)[C@@H](O)[C@H]2O)C=CC1 [NADH, nicotinamide adenine dinucleotide]

Structure (SMILES): COc1cc(C(=O)C(=O)c2cc(OC)c(O)c(OC)c2)cc(OC)c1O [NSC 16736]
Kd [2]: ~44.5 µM
ΔTm ([2]; Table S4, protein 1000006, in °C (unit assumed)): 4.89
Q (quality score) ([2]; Table S4, protein 1000006, ratio ΔFmelt/ΔFtotal): 0.4
Q (quality score of melting curve, ΔFmelt/ΔFtotal) [3]: 0.21
Kd ([3]; read-out: KD (Approx)): 123 µM

Structure (SMILES): Cc1c(C(C)(C(=O)O)c2c(C)n(C)c3ccccc23)c2ccccc2n1C [NSC 106231]
Q (quality score of melting curve, ΔFmelt/ΔFtotal) [3]: 0.54
Kd ([3]; read-out: KD): 40.9 µM
Kd ([3]; read-out: KD (Approx)): 40.9 µM

MIC (E. coli strain DH5α): 7.8 µg/mL (≈ 25.6 µM)
MIC [4]: 31.2 µg/mL (≈ 103 µM)
MIC [5]: 125 µg/mL (≈ 411 µM)
MIC [6]: 31.2 µg/mL (≈ 103 µM)
Structure (SMILES): Nc1ccc(Cn2ccc3c4c(N)nc(N)nc4ccc32)cc1 [NSC 309401, 7-[(4-aminophenyl)methyl]-7Hpyrrolo [3,2-f] quinazoline-1,3-diamine]
IC50 [7]: 0.13 µg/mL (≈ 0.427 µM)
activity against cancer cell lines, in words [8]: has activity
